The record followed here is patent US6664244B1, “Pet foods” (Nihon Shokuhin Kako Co., Ltd., priority 1998, dated 2003).

Experiment [1] concerns beagles. The experiment in a line: Experiments on suppression of obesity (body weight change, high-fat feed). In kind it is in vivo. The conditions noted are these: healthy beagles; Hills c/d Dry 200 g + lard 117 g basic feed, corn starch replaced with 23.4 g β-CD; about 400 kcal per metabolic body weight per day; vs reference group (FIG. 1). How it is done:
Ten healthy beagles were divided in 2 groups consisting of 5, respectively. Hills c/d Dry were fed for 1 week before the experiment. As for feeds in this experiment, the one in which 200 g of Hills c/d Dry blended with 117 g of lard was used as a basic feed. In the reference group, the one in which 34 g of cornstarch was added to the above basic feed is used. In the experimental group, the feed used is the same one as used in the reference group except that all corn starch was replaced with 23.4 g of β-CD (β-cyclodextrin). The feeding amount for one dog, per day, was controlled without changing the ratio of components so that the amount of the basic feed (Hills c/d Dry and lard) is about 400 kcal per metabolic body weight (kg0.75)

For experiment [2], the system named is beagles. Kind of experiment: Experiments on solution of obesity (body weight change in obese beagles). In kind it is in vivo. The conditions noted are these: beagles made obese by 2 months of high-energy foods; feed with 23.4 g corn starch replaced with β-CD; about 275 kcal per metabolic body weight per day (FIG. 2). The source says: Ten beagles were fed high-energy foods for 2 months before the experiment, so that they became obese. At the beginning of the experiment, they were divided in […] so as to make uniform the average body weight of each group as much as possible. The feed used in the reference group was the same as that of Experiment 1 and the same feed in which 23.4 g of corn starch was replaced with β-CD was used in the β-CD group. The feeding amount for one dog, per day was controlled without changing the ratio of components so that the amount of the basic feed (Hills c/d Dry and lard) is about 275 kcal per metabolic body weight (kg0.75).

With `OC[C@H]1O[C@@H]2O[C@H]3[C@H](O)[C@@H](O)[C@@H](O[C@H]4[C@H](O)[C@@H](O)[C@@H](O[C@H]5[C@H](O)[C@@H](O)[C@@H](O[C@H]6[C@H](O)[C@@H](O)[C@@H](O[C@H]7[C@H](O)[C@@H](O)[C@@H](O[C@H]8[C@H](O)[C@@H](O)[C@@H](O[C@H]1[C@H](O)[C@H]2O)O[C@@H]8CO)O[C@@H]7CO)O[C@@H]6CO)O[C@@H]5CO)O[C@@H]4CO)O[C@@H]3CO` [β-CD, β-cyclodextrin], the “increase of body weight” value with beagles [1] is “significantly suppressed”. Also, the body weight result with beagles [2] is given as “significantly reduced”.
